Measurements published in US20240043470A1, “MACROCYCLIC COMPOUNDS AS PROTEASOME INHIBITORS” (CORNELL UNIVERSITY, priority 2017, published 2024).

Molecular target: β5c of hu c-20S (Homo sapiens (Human), UniProt P20618+P28074)
Assay: IC50 determination against β5c of human constitutive proteasome (suc-LLVY-AMC hydrolysis);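 note: IC50 obtained by fitting initial reaction velocities to a dose-dependent inhibition model, with SDS present as proteasome activator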
Format: biochemical
Details: 0.2 nM c-20S, 25 μM suc-LLVY-AMC

Row | IC50 [µM] | SMILES
1 | 5.93 | CCC(=O)N[C@H]1Cc2cccc(c2)Oc2cccc(c2)C[C@@H](c2nc3ccccc3o2)NC(=O)[C@H](CCc2ccccc2)NC1=O [Compound 1-42]
2 | 2.47 | CCNC(=O)[C@@H]1Cc2cccc(c2)Oc2cccc(c2)C[C@H](N2CCCCC2)C(=O)N[C@@H](CCc2ccccc2)C(=O)N1 [Compound 1-28]
3 | 24.1 | O=C1CCc2cccc(c2)OCCCC[C@@H](C(=O)NC2CCCC2)NC(=O)[C@H](CCN2CCOCC2)N1 [Compound 3-25, (6S,9S)—N-Cyclopentyl-9-(2-morpholinoethyl)-8,11-dioxo-2-oxa-7,10-diaza-1(1,3)-benzenacyclotridecaphane-6-carboxamide]
4 | 1.78 | CS(=O)(=O)N[C@H]1Cc2cccc(c2)Oc2cccc(c2)C[C@@H](C(=O)NCC2CC2)NC(=O)[C@H](CCc2ccccc2)NC1=O [Compound 1-08]
5 | 0.47 | O=C1CCc2cccc(c2)Oc2cccc(c2)C[C@@H](C(=O)NCc2ccccc2F)NC(=O)[C@H](CCN2CCOCC2)N1 [Compound 1-91]
6 | 3 | CS(=O)(=O)N[C@H]1Cc2cccc(c2)Oc2cccc(c2)C[C@@H](C(N)=O)NC(=O)[C@H](CCc2ccccc2)NC1=O [Compound 1-35]
7 | 1.63 | CCN(CC)[C@H]1Cc2cccc(c2)Oc2cccc(c2)C[C@@H](C(=O)NC(C)C)NC(=O)[C@H](CCc2ccccc2)NC1=O [Compound 1-25]
8 | 2.2 | CCN(CC)[C@H]1Cc2cccc(c2)Oc2cccc(c2)C[C@@H](C(=O)NCC(C)C)NC(=O)[C@H](CCc2ccccc2)NC1=O [Compound 1-29]
9 | 5.7 | O=C(N[C@H]1Cc2cccc(c2)Oc2cccc(c2)C[C@@H](C(=O)NCCC(F)(F)F)NC(=O)[C@H](CCc2ccccc2)NC1=O)c1ccccc1 [Compound 1-41]
10 | 5 | CC(C)CNC(=O)[C@@H]1Cc2cccc(c2)Oc2cccc(c2)C[C@H](NC(=O)c2ccccc2)C(=O)N[C@@H](CCc2ccccc2)C(=O)N1 [Compound 1-31]
11 | 1.3 | CC1CCCN1[C@H]1Cc2cccc(c2)Oc2cccc(c2)C[C@@H](C(=O)NCc2ccccc2)NC(=O)[C@H](CCc2ccccc2)NC1=O (stereo partly drawn) [Compound 1-10]
12 | 4.21 | CCC(=O)N[C@H]1Cc2cccc(c2)Oc2cccc(c2)C[C@@H](C(=O)NCC(C)C)NC(=O)[C@H](CCc2ccccc2)NC1=O [Compound 1-30]
13 | 41.6 | CCN(CC)[C@H]1Cc2cccc(c2)Oc2cccc(c2)C[C@@H](C(=O)NC2CCCC2)NC(=O)[C@H](CCc2ccccc2)NC1=O [Compound 1-22]
14 | 10.2 | CCC(=O)N[C@H]1Cc2cccc(c2)Oc2cccc(c2)C[C@@H](C(=O)NCc2ccccn2)NC(=O)[C@H](CCc2ccccc2)NC1=O [Compound 1-48]
15 | 7.52 | O=C(N[C@H]1Cc2cccc(c2)Oc2cccc(c2)C[C@@H](C(=O)N2CCCC2)NC(=O)[C@H](CCc2ccccc2)NC1=O)C1COC1 [Compound 1-44]
16 | 3.04 | CCN(CC)C(=O)[C@@H]1Cc2cccc(c2)Oc2cccc(c2)C[C@H](NC(=O)c2ccncc2)C(=O)N[C@@H](CCc2ccccc2)C(=O)N1 [Compound 1-36]
17 | 2.85 | COCCNC(=O)[C@@H]1Cc2cccc(c2)Oc2cccc(c2)C[C@H](NC(=O)c2cccnc2)C(=O)N[C@@H](CCc2ccccc2)C(=O)N1 [Compound 1-34]
18 | 3.25 | O=C(CO)N[C@H]1Cc2cccc(c2)Oc2cccc(c2)C[C@@H](C(=O)NC2CCCC2)NC(=O)[C@H](CCc2ccccc2)NC1=O [Compound 1-20]

Row | IC50 [µM] | SMILES
19 | 0.572 | O=C(NC1CCCC1)[C@@H]1Cc2cccc(c2)Oc2cccc(c2)C[C@H](N2CCCC2)C(=O)N[C@@H](CCc2ccccc2)C(=O)N1 [Compound 1-18]
20 | 1.12 | CCC(=O)N[C@H]1Cc2cccc(c2)Oc2cccc(c2)C[C@@H](C(=O)NCC2CC2)NC(=O)[C@H](CCc2ccccc2)NC1=O [Compound 1-07]
21 | 1 | CN1CCC(C(=O)N[C@H]2Cc3cccc(c3)Oc3cccc(c3)C[C@@H](C(=O)NCc3cnn(C)c3)NC(=O)[C@H](CCc3ccccc3)NC2=O)CC1 [Compound 1-03, (5S,8S,11S)—N-((1-Methyl-1H-pyrazol-4-yl)methyl)-11-(1-methylpiperidine-4-carboxamido)-7,10-dioxo-8-phenethyl-2-oxa-6,9-diaza-1,3(1,3)-dibenzenacyclododecaphane-5-carboxamide]
22 | 3.4 | CCCN(CCC)[C@H]1Cc2cccc(c2)Oc2cccc(c2)C[C@@H](C(=O)NC2CCCC2)NC(=O)[C@H](CCc2ccccc2)NC1=O [Compound 1-21]
23 | 6.93 | CC(C)NC(=O)[C@@H]1Cc2cccc(c2)Oc2cccc(c2)C[C@H](NC(=O)c2ccccc2)C(=O)N[C@@H](CCc2ccccc2)C(=O)N1 [Compound 1-26]
24 | 34.6 | CC1(CNC(=O)[C@@H]2CCCCOc3cccc(c3)CCC(=O)N[C@@H](CCN3CCOCC3)C(=O)N2)CC1 [Compound 3-27]
25 | 2.25 | COCCC(=O)N[C@H]1Cc2cccc(c2)Oc2cccc(c2)C[C@@H](C(=O)NCc2cccnc2)NC(=O)[C@H](CCc2ccccc2)NC1=O [Compound 1-33]
26 | 3.52 | Cn1cnc(C(=O)N[C@H]2Cc3cccc(c3)Oc3cccc(c3)C[C@@H](C(=O)NCc3ccccc3)NC(=O)[C@H](CCc3ccccc3)NC2=O)c1 [Compound 1-13]
27 | 9.7 | COCC(=O)N[C@H]1Cc2cccc(c2)Oc2cccc(c2)C[C@@H](C(=O)NCC2CCCO2)NC(=O)[C@H](CCc2ccccc2)NC1=O (stereo partly drawn) [Compound 1-47]
28 | 4.29 | Cc1nn(C)cc1CNC(=O)[C@@H]1Cc2cccc(c2)Oc2cccc(c2)C[C@H](NS(C)(=O)=O)C(=O)N[C@@H](CCc2ccccc2)C(=O)N1 [Compound 1-38]
29 | 7.7 | COCCC(=O)N[C@H]1Cc2cccc(c2)Oc2cccc(c2)C[C@@H](C(=O)NCCC(F)(F)F)NC(=O)[C@H](CCc2ccccc2)NC1=O [Compound 1-45]
30 | 4.01 | CCC(=O)N[C@H]1Cc2cccc(c2)Oc2cccc(c2)C[C@@H](C(=O)NCc2ccccc2)NC(=O)[C@H](CCc2ccccc2)NC1=O [Compound 1-14]
31 | 11.9 | O=C(N[C@H]1Cc2cccc(c2)Oc2cccc(c2)C[C@@H](C(=O)NCC2CCOCC2)NC(=O)[C@H](CCc2ccccc2)NC1=O)c1cccnn1 [Compound 1-49]
32 | 0.503 | CCCN(CCC)[C@H]1Cc2cccc(c2)Oc2cccc(c2)C[C@@H](C(=O)NCc2ccccc2)NC(=O)[C@H](CCc2ccccc2)NC1=O [Compound 1-09]
33 | 100 | CCN[C@H]1Cc2cccc(c2)Oc2cccc(c2)C[C@@H](C(=O)NC2CCCC2)NC(=O)[C@H](CCc2ccccc2)NC1=O [Compound 1-24, (5S,8S,11S)—N-Cyclopentyl-11-(methylamino)-7,10-dioxo-8-phenethyl-2-oxa-6,9-diaza-1,3(1,3)-dibenzenacyclododecaphane-5-carboxamide]
34 | 45 | O=C(NCC(F)(F)F)[C@@H]1CCCCOc2cccc(c2)C[C@H](N2CCCS2(=O)=O)C(=O)N[C@@H](CCN2CCOCC2)C(=O)N1 [Compound 3-19]
35 | 100 | O=C(N[C@H]1Cc2cccc(c2)Oc2cccc(c2)C[C@@H](C(=O)NCc2ccccc2)NC(=O)[C@H](CCc2ccccc2)NC1=O)c1ccccc1 [Compound 1-15]

Row | SMILES | IC50 [µM]
36 | Cn1cc(CNC(=O)[C@@H]2Cc3cccc(c3)Oc3cccc(c3)C[C@H](N3CCCCC3)C(=O)N[C@@H](CCc3ccccc3)C(=O)N2)cn1 [Compound 1-01, (5S,8S,11S)—N-((1-Methyl-1H-pyrazol-4-yl)methyl)-7,10-dioxo-8-phenethyl-11-(piperidin-1-yl)-2-oxa-6,9-diaza-1,3(1,3)-dibenzenacyclododecaphane-5-carboxamide] | 0.402
